Test results from patent US20130142739A1, “PROCESS FOR THE SYNTHESIS OF ISOTHIOCYANATES AND DERIVATIVES THEREOF AND USES OF SAME” (Auriga International, priority 2010, published 2013).
Where two headings read alike, the source gives them in different places.

System: human melanocytes of the SKMel type
Assay: Depigmentation: melanin production by melanocytes in culture, melanin content by spectrophotometry
Type: cell-based
Settings: for Eff./Ref. to 5 μM (relative activity with respect to kojic acid at the same concentration): kojic acid = 1; for activity at 5 µM: SK-MEL3, 72 h, read-out: Resid. Pig. (%) (percentage of residual pigmentation); for residual pigmentation percentage: 100 μM
Protocol: Various synthesized molecules were tested in order to determine their depigmenting power. The idea was to evaluate the effect of each of them on the production of melanin by melanocytes maintained in a culture medium.
For these tests, 2 lines of melanocytes were cultivated, human melanocytes of the SKMel type on the one hand and a murine line of the B16F10 type on the other hand. Here, we only show the results obtained on the human line.
The melanin content was determined by spectrophotometry, after 3 days of incubation in the presence of the molecule to be tested and cell lysis.
Kojic acid, a well-known depigmenting agent is used as a reference for making a hierarchy of the results.
For each measurement, the analyses were repeated. The indicated value corresponds to the calculated average. When the experiments are repeated, the average variation coefficient of the residual pigmentation percentage is of the order of 3% (comprised between 1.5% and 6% (for 3 tests).
This list is neither exhaustive nor limiting and the same type of results was obtained for the other molecules.

[1] = 5 μM, human line SKMel, 3 days of incubation, melanin vs control culture (cells alone)

C1COCCN1 [reference compound] was tested, and the “Eff./Ref. to 5 μM (relative activity with respect to kojic acid at the same concentration)” value (5 μM, human line SKMel) was 5 and the activity at 5 µM [1] was 86%.
C1CCNCC1 [reference compound] was tested, and the “Eff./Ref. to 5 μM (relative activity with respect to kojic acid at the same concentration)” value (5 μM, human line SKMel) was 17 and the activity at 5 µM [1] was 50%.
In the case of CC(=O)CCCCN=C=S, the “Eff./Ref. to 5 μM (relative activity with respect to kojic acid at the same concentration)” value (5 μM, human line SKMel) is reported as 5 and the activity at 5 µM [1] is reported as 84%.
In the case of [O-][S+](CCCCN=C=S)c1ccccc1 (stereo not shown), the “Eff./Ref. to 5 μM (relative activity with respect to kojic acid at the same concentration)” value (5 μM, human line SKMel) is reported as 10 and the activity at 5 µM [1] is reported as 71%.
In the case of CS(=O)(=O)CCCCN=C=S, the “Eff./Ref. to 5 μM (relative activity with respect to kojic acid at the same concentration)” value (5 μM, human line SKMel) is reported as 15 and the activity at 5 µM [1] is reported as 54%.
For C[S+]([O-])CCCCN (stereo not shown) [reference compound], the “Eff./Ref. to 5 μM (relative activity with respect to kojic acid at the same concentration)” value (5 μM, human line SKMel) was 11 and the activity at 5 µM [1] was 67%.
For C[S+]([O-])CCCCN=C=S (stereo not shown), the “Eff./Ref. to 5 μM (relative activity with respect to kojic acid at the same concentration)” value (5 μM, human line SKMel) was 22 and the activity at 5 µM [1] was 34%.
For O=c1cc(CO)occ1O [kojic acid, Kojic acid, reference compound], the “Eff./Ref. to 5 μM (relative activity with respect to kojic acid at the same concentration)” value (5 μM, human line SKMel) was 1, the residual pigmentation percentage (human line SKMel) was 73% and the activity at 5 µM [1] was 97%.
For CC[S+]([O-])CCCCN=C=S (stereo not shown), the “Eff./Ref. to 5 μM (relative activity with respect to kojic acid at the same concentration)” value (5 μM, human line SKMel) was 12 and the activity at 5 µM (Homo sapiens) was 63%.
For C[S+]([O-])CCCCNC(=S)NCCCC[S+](C)[O-] (stereo not shown) [Example 9, 1,3-bis-(4-(methylsulfinyl)butyl)-thiourea], the “Eff./Ref. to 5 μM (relative activity with respect to kojic acid at the same concentration)” value (5 μM, human line SKMel) was 27, the residual pigmentation percentage (human line SKMel) was 14% and the activity at 5 µM [1] was 20%.
